Source: US20230242582A1, “NOVEL ALPHA-HELICAL DOUBLE-SIDED CELL PENETRATING PEPTIDE AND USE THEREOF” (CAMP THERAPEUTICS INC., priority 2020, published 2023)
Positions of bridges follow the written chain, without caps; N, C: chain ends. Non-standard residues stand in square brackets, D forms with d. Residues, ends and D or L forms follow the SMILES beside them. Chains are numbered I, II in the order given. tBuAla = CC(C)(C)C[C@H](N)C(=O)O; hCys = N[C@@H](CCS)C(=O)O

What was measured:
HeLa cells [1] = test: Cytotoxicity of dimeric peptides, WST-1 assay; type: cell-based, human; conditions: for ratio: IC50 relative to LK-3, HeLa cells
Method: Cytotoxicity was identified using WST-1 assay by treating HeLa cells with peptides in a 96-well plate (1×10^4 cells/well) for 24 hours.
Specifically, HeLa cells were cultured in DMEM at a condition of 37° C. with 5% CO2. The cells were respectively cultured in a cell culture plate, and then removed with trypsin. The cells were seeded at 1×10^4 cells per well in a 96-well plate. After 24 hours, the peptide was added to the media, and culture was performed again at a condition of 37° C. with 5% CO2 for 24 hours. 10 uL of WST-1 reagent was added per well, and reaction was allowed to proceed for 30 minutes at a condition of 37° C. with 5% CO2. Then, UV absorbance was measured at 450/700 nm with a 96-well plate reader.

HeLa cells [2] = test: Cell-penetrating ability of fluorescently labeled dimeric peptides, flow cytometry; type: cell-based, human; conditions: for ratio of cell-penetrating ability to cytotoxicity (IC50^−1): at 62.5 nM, FIG. 6A
Method: During preparation of CPPs in dimeric form shown in Tables 1 to 3, one monomer thereof was prepared in a form where 5-TAMRA fluorescence was attached to the N-terminus, instead of acetyl. A monomer with acetyl and a monomer with 5-TAMRA fluorescence were mixed in a molar ratio of 1:1, and subjected to an oxidation condition in air to produce a dimeric form in which only one fluorescence was labeled per dimer molecule. Then, cell-penetrating ability of each dimer was identified. Each fluorescently labeled peptide was used to treat HeLa cells (5×10^4 cells/well), which are human-derived cells, and a ratio of the number of cells with fluorescence to the total number of cells was obtained through flow cytometry.
FIGS. 4B to 4D illustrate results obtained by treating cells with respective dimers at the same concentration (62.5 nM), measuring fluorescence intensity of the cells by flow cytometry, and relatively comparing the fluorescence intensity.
Based on cell-penetrating ability and cytotoxicity of the dimeric peptides of the present disclosure, correlation therebetween was identified. Cytotoxicity (IC50^−1) and cell-penetrating ability of the respective peptides were identified at 62.5 nM according to the methods described in Examples 5 and 6, and then graphically represented.

Molecule	ratio (HeLa cells [1])	ratio of cell-penetrating ability to cytotoxicity (IC50^−1) (HeLa cells [2])	further results
CC(=O)N[C@@H](CC(C)C)C(=O)N[C@@H](CCCCN)C(=O)N[C@@H](CCCCN)C(=O)N[C@@H](CC(C)C)C(=O)N[C@H]1CSSC[C@@H](C(=O)N[C@@H](CCCCN)C(=O)N[C@@H](CC(C)C)C(=O)N[C@@H](C)C(=O)NCC(N)=O)NC(=O)[C@H](CC(C)C)NC(=O)[C@H](CCCCN)NC(=O)[C@H](CCCCN)NC(=O)[C@H](CC(C)C)NC(=O)[C@H](CC(C)C)NC(=O)[C@H](CCCCN)NC(=O)[C@@H](NC(=O)[C@H](CC(C)C)NC(=O)[C@H](CCCCN)NC(=O)[C@H](CCCCN)NC(=O)[C@H](CC(C)C)NC(C)=O)CSSC[C@@H](C(=O)N[C@@H](CCCCN)C(=O)N[C@@H](CC(C)C)C(=O)N[C@@H](C)C(=O)NCC(N)=O)NC(=O)[C@H](CC(C)C)NC(=O)[C@H](CCCCN)NC(=O)[C@H](CCCCN)NC(=O)[C@H](CC(C)C)NC(=O)[C@H](CC(C)C)NC(=O)[C@H](CCCCN)NC1=O [LK-3, reference compound] (HELM PEPTIDE1{[ac].L.K.K.L.C.K.L.L.K.K.L.C.K.L.A.G.[am]}|PEPTIDE2{[ac].L.K.K.L.C.K.L.L.K.K.L.C.K.L.A.G.[am]}$PEPTIDE1,PEPTIDE2,6:R3-13:R3|PEPTIDE1,PEPTIDE2,13:R3-6:R3$$$V2.0; bridges inferred)	1.00	about 130,000	
CC(=O)N[C@@H](Cc1ccccc1)C(=O)N[C@H]1CSSC[C@@H](C(=O)N[C@@H](CCCCN)C(N)=O)NC(=O)[C@H](Cc2ccccc2)NC(=O)[C@H](CCCCN)NC(=O)[C@H](CCCCN)NC(=O)[C@H](Cc2ccccc2)NC(=O)[C@H](Cc2ccccc2)NC(=O)[C@H](CCCCN)NC(=O)[C@@H](NC(=O)[C@H](Cc2ccccc2)NC(C)=O)CSSC[C@@H](C(=O)N[C@@H](CCCCN)C(N)=O)NC(=O)[C@H](Cc2ccccc2)NC(=O)[C@H](CCCCN)NC(=O)[C@H](CCCCN)NC(=O)[C@H](Cc2ccccc2)NC(=O)[C@H](Cc2ccccc2)NC(=O)[C@H](CCCCN)NC1=O [diFK10] (HELM PEPTIDE1{[ac].F.C.K.F.F.K.K.F.C.K.[am]}|PEPTIDE2{[ac].F.C.K.F.F.K.K.F.C.K.[am]}$PEPTIDE1,PEPTIDE2,3:R3-10:R3|PEPTIDE1,PEPTIDE2,10:R3-3:R3$$$V2.0; bridges inferred)	2.11		
CC(=O)N[C@@H](Cc1ccccc1)C(=O)N[C@H]1CSSC[C@@H](C(=O)N[C@@H](CCCNC(=N)N)C(N)=O)NC(=O)[C@H](Cc2ccccc2)NC(=O)[C@H](CCCNC(=N)N)NC(=O)[C@H](CCCNC(=N)N)NC(=O)[C@H](Cc2ccccc2)NC(=O)[C@H](Cc2ccccc2)NC(=O)[C@H](CCCNC(=N)N)NC(=O)[C@@H](NC(=O)[C@H](Cc2ccccc2)NC(C)=O)CSSC[C@@H](C(=O)N[C@@H](CCCNC(=N)N)C(N)=O)NC(=O)[C@H](Cc2ccccc2)NC(=O)[C@H](CCCNC(=N)N)NC(=O)[C@H](CCCNC(=N)N)NC(=O)[C@H](Cc2ccccc2)NC(=O)[C@H](Cc2ccccc2)NC(=O)[C@H](CCCNC(=N)N)NC1=O [diFR10] (HELM PEPTIDE1{[ac].F.C.R.F.F.R.R.F.C.R.[am]}|PEPTIDE2{[ac].F.C.R.F.F.R.R.F.C.R.[am]}$PEPTIDE1,PEPTIDE2,3:R3-10:R3|PEPTIDE1,PEPTIDE2,10:R3-3:R3$$$V2.0; bridges inferred)	4.10	low toxicity as compared with cell-penetrating ability	
CC[C@H](C)[C@H](NC(C)=O)C(=O)N[C@H]1CSSC[C@@H](C(=O)N[C@@H](CCCCN)C(N)=O)NC(=O)[C@H]([C@@H](C)CC)NC(=O)[C@H](CCCCN)NC(=O)[C@H](CCCCN)NC(=O)[C@H]([C@@H](C)CC)NC(=O)[C@H]([C@@H](C)CC)NC(=O)[C@H](CCCCN)NC(=O)[C@@H](NC(=O)[C@@H](NC(C)=O)[C@@H](C)CC)CSSC[C@@H](C(=O)N[C@@H](CCCCN)C(N)=O)NC(=O)[C@H]([C@@H](C)CC)NC(=O)[C@H](CCCCN)NC(=O)[C@H](CCCCN)NC(=O)[C@H]([C@@H](C)CC)NC(=O)[C@H]([C@@H](C)CC)NC(=O)[C@H](CCCCN)NC1=O [diIK10] (HELM PEPTIDE1{[ac].I.C.K.I.I.K.K.I.C.K.[am]}|PEPTIDE2{[ac].I.C.K.I.I.K.K.I.C.K.[am]}$PEPTIDE1,PEPTIDE2,3:R3-10:R3|PEPTIDE1,PEPTIDE2,10:R3-3:R3$$$V2.0; bridges inferred)	2.57		
CC(=O)N[C@@H](CC(C)(C)C)C(=O)N[C@H]1CSSC[C@@H](C(=O)N[C@@H](CCCCN)C(N)=O)NC(=O)[C@H](CC(C)(C)C)NC(=O)[C@H](CCCCN)NC(=O)[C@H](CCCCN)NC(=O)[C@H](CC(C)(C)C)NC(=O)[C@H](CC(C)(C)C)NC(=O)[C@H](CCCCN)NC(=O)[C@@H](NC(=O)[C@H](CC(C)(C)C)NC(C)=O)CSSC[C@@H](C(=O)N[C@@H](CCCCN)C(N)=O)NC(=O)[C@H](CC(C)(C)C)NC(=O)[C@H](CCCCN)NC(=O)[C@H](CCCCN)NC(=O)[C@H](CC(C)(C)C)NC(=O)[C@H](CC(C)(C)C)NC(=O)[C@H](CCCCN)NC1=O [diL*K10] (I: Ac-[tBuAla]CK[tBuAla][tBuAla]KK[tBuAla]CK-NH2 / II: Ac-[tBuAla]CK[tBuAla][tBuAla]KK[tBuAla]CK-NH2; disulfide I:2-II:9, I:9-II:2 (inferred))	2.32		
CC(=O)N[C@@H](CC(C)(C)C)C(=O)N[C@H]1CSSC[C@@H](C(=O)N[C@@H](CCCNC(=N)N)C(N)=O)NC(=O)[C@H](CC(C)(C)C)NC(=O)[C@H](CCCNC(=N)N)NC(=O)[C@H](CCCNC(=N)N)NC(=O)[C@H](CC(C)(C)C)NC(=O)[C@H](CC(C)(C)C)NC(=O)[C@H](CCCNC(=N)N)NC(=O)[C@@H](NC(=O)[C@H](CC(C)(C)C)NC(C)=O)CSSC[C@@H](C(=O)N[C@@H](CCCNC(=N)N)C(N)=O)NC(=O)[C@H](CC(C)(C)C)NC(=O)[C@H](CCCNC(=N)N)NC(=O)[C@H](CCCNC(=N)N)NC(=O)[C@H](CC(C)(C)C)NC(=O)[C@H](CC(C)(C)C)NC(=O)[C@H](CCCNC(=N)N)NC1=O [diL*R10] (I: Ac-[tBuAla]CR[tBuAla][tBuAla]RR[tBuAla]CR-NH2 / II: Ac-[tBuAla]CR[tBuAla][tBuAla]RR[tBuAla]CR-NH2; disulfide I:2-II:9, I:9-II:2 (inferred))	3.11		
CC(=O)N[C@@H](CC(C)(C)C)C(=O)N[C@H]1CSSC[C@@H](C(=O)N[C@@H](CCCCN)C(N)=O)NC(=O)[C@H](CC(C)(C)C)NC(=O)[C@H](CCCCN)NC(=O)[C@H](CCCCN)NC(=O)[C@H](CC(C)(C)C)NC(=O)[C@H](CC(C)(C)C)NC(=O)[C@H](CCCCN)NC(=O)[C@@H](NC(=O)[C@H](CC(C)(C)C)NC(C)=O)CSSC[C@@H](C(=O)N[C@@H](CCCCN)C(N)=O)NC(=O)[C@H](CC(C)(C)C)NC(=O)[C@H](CCCCN)NC(=O)[C@H](CCCCN)NC(=O)[C@H](CC(C)(C)C)NC(=O)[C@H](CC(C)(C)C)NC(=O)[C@H](CCCCN)NC1=O [diNpgK10] (I: Ac-[tBuAla]CK[tBuAla][tBuAla]KK[tBuAla]CK-NH2 / II: Ac-[tBuAla]CK[tBuAla][tBuAla]KK[tBuAla]CK-NH2; disulfide I:2-II:9, I:9-II:2 (inferred))		low toxicity as compared with cell-penetrating ability	
CC(=O)N[C@@H](CC(C)(C)C)C(=O)N[C@H]1CSSC[C@@H](C(=O)N[C@@H](CCCNC(=N)N)C(N)=O)NC(=O)[C@H](CC(C)(C)C)NC(=O)[C@H](CCCNC(=N)N)NC(=O)[C@H](CCCNC(=N)N)NC(=O)[C@H](CC(C)(C)C)NC(=O)[C@H](CC(C)(C)C)NC(=O)[C@H](CCCNC(=N)N)NC(=O)[C@@H](NC(=O)[C@H](CC(C)(C)C)NC(C)=O)CSSC[C@@H](C(=O)N[C@@H](CCCNC(=N)N)C(N)=O)NC(=O)[C@H](CC(C)(C)C)NC(=O)[C@H](CCCNC(=N)N)NC(=O)[C@H](CCCNC(=N)N)NC(=O)[C@H](CC(C)(C)C)NC(=O)[C@H](CC(C)(C)C)NC(=O)[C@H](CCCNC(=N)N)NC1=O [diNpgR10] (I: Ac-[tBuAla]CR[tBuAla][tBuAla]RR[tBuAla]CR-NH2 / II: Ac-[tBuAla]CR[tBuAla][tBuAla]RR[tBuAla]CR-NH2; disulfide I:2-II:9, I:9-II:2 (inferred))		low toxicity as compared with cell-penetrating ability	
diLH10: dimer of monomer LH10, AC-LCHLLHHLCH-NH2 (SEQ ID NO 14) (Ac-LCHLLHHLCH-NH2; also: dimer of two monomers linked by interchain disulfide bonds)			toxicity (HeLa cells [1]; even at 40 μM, data not shown): no toxicity was observed
diLR10^C9Hcy: dimer of monomer LR10^C9Hcy, Ac-LCRLLRRLHcyR-NH2 (SEQ ID NO 43) (Ac-LCRLLRRL[hCys]R-NH2; also: dimer linked by intermolecular disulfides)			cell-penetrating ability (HeLa cells [2]; HeLa cells, flow cytometry, FIG. 4): best results
